Measured values: patent publication US20180036234A1, “TREATMENT OF BONE FRACTURES AND DEFECTS” (Entera Bio Ltd., priority 2015, published 2018)
Values joined by “and” are separate entries in the source; they are usually repeats but may differ in a detail not shown here. Identical values can stand only once.

Columns and labels:
[1] = Pharmacokinetic study of oral teriparatide tablet (0.75 mg) in healthy volunteers; format: in vivo, human
Method: An open label comparative pharmacokinetic study was performed in healthy volunteers over the course of 3 months. Each volunteer received—in each of two visits—the same oral tablet containing 0.75 mg of teriparatide, a recombinant form of parathyroid hormone (1-34).
(§1) The formulation was composed of teriparatide (0.75 mg), SNAC (sodium 8-N-(2-hydroxybenzoyl) aminocaprylate), soybean trypsin inhibitor (SBTI) and a small amount of magnesium stearate.
Tablets were administered in the morning after an 8-hour overnight fast and immediately followed by 150 ml of water. At each visit a standard meal was provided 3 hours after drug administration. […] There was a two weeks period between the visits.
(§2) To determine parathyroid hormone(1-34) (PTH(1-34)) concentrations, blood samples (4 ml each) were drawn via an indwelling catheter from the forearm vein at predetermined time points during each visit. The cannula was flushed with 1.5 ml normal saline after each sampling. In addition, to avoid sample dilution, 1 ml of blood was drawn and discarded before the next sample. The blood samples were taken at following times: baseline (predose), 10 minutes, 15 minutes, 20 minutes, 30 minutes, 45 minutes, 60 minutes, 75 minutes, 90 minutes, 105 minutes, 2 hours, 3 hours, 4 hours and 5 hours post-administration. Each blood sample was collected into a single tube containing EDTA (ethylenediaminetetraacetic acid) and placed on ice. Within 15 minutes of blood collection, samples were centrifuged for 10 minutes at 4° C. (2500 rotations per minute) and the plasma was separated and divided into two or three aliquots. Each aliquot was transferred into appropriately labeled polypropylene tubes and stored at approximately −20° C. pending analysis. PTH(1-34) levels were measured using an IDS-iSYS automated assay for the measurement of intact PTH(1-34) in human plasma or serum.

[2] = Pharmacokinetic study of oral teriparatide tablet co-administered with water or sodium bicarbonate solution; format: in vivo, human; settings: oral tablet 0.75 mg teriparatide with 150 ml of 3 mg/ml sodium bicarbonate solution, in comparison with 150 ml water; FIG. 16
Method: An open label comparative pharmacokinetic study was performed on ten healthy volunteers. On different visits, each volunteer received the same oral tablet containing 0.75 mg of teriparatide, a recombinant form of parathyroid hormone (1-34) (PTH(1-34)). In the first visit, the tablet was administered with 150 ml water, whereas in the second visit the tablet was administered with 150 ml of 3 mg/ml sodium bicarbonate aqueous solution.
as §1
Tablets were administered in the morning after an 8-hour overnight fast. At each visit a standard meal was provided 3 hours after drug administration. […] There was a two week period between the two visits.
To determine PTH(1-34) concentrations, blood samples were drawn and PTH(1-34) levels were measured using an IDS-iSYS automated assay, using procedures described in Example 1 hereinabove. Relative absorption was determined based on the AUC (area under curve) parameter.

[3] = Phase I clinical study of oral teriparatide formulations, plasma PTH(1-34) versus subcutaneous injection; format: in vivo, human
Method: A Phase I clinical study of exemplary oral formulations comprising teriparatide (parathyroid hormone (1-34)) was conducted at the Hadassah Clinical Research Center. 42 healthy volunteers were included throughout the study.
The formulation was composed of teriparatide (200, 400, 680, 1400 or 1800 μg), SNAC (sodium 8-N-(2-hydroxybenzoyl) aminocaprylate), soybean trypsin inhibitor and magnesium stearate.
Tablets were administered in the morning after an 8-hour overnight fast and immediately followed by 150 ml of water. At each visit a standard meal was provided 3 hours after drug administration.
as §2, with “hormone” for “hormone(1-34) (PTH(1-34))”, “points.” for “points during each visit.”, “(predose),” for “(predose), 10 minutes,”, “15” for “15 minutes, 20”
Oral administration of teriparatide was performed as described hereinabove at doses of 200, 400, 680, 1400 or 1800 μg. The Cmax of PTH(1-34) for each orally administered dose was compared with the Cmax of PTH(1-34) for subcutaneous injection of 20 μg teriparatide.

[4] = tested on: cAMP; assay: Plasma cAMP levels after oral or subcutaneous teriparatide; format: in vivo, human; settings: FIG. 4
Method: In addition, plasma levels of cAMP, a known marker of PTH activity, were determined in order to confirm biological activity of administered PTH. cAMP plasma levels were measured following oral administration of 680 μg teriparatide or subcutaneous injection of 20 μg teriparatide, as described hereinabove.

[5] = Dissolution test of tablets in simulated gastric buffer, released SNAC by HPLC; format: physicochemical; settings: tablet with 100 mg sodium bicarbonate vs tablet without; simulated gastric buffer pH 2.0, 37° C.; FIG. 15
Method: The tablets were in a form of a homogeneous mixture.
Each tablet formulation was subjected to a dissolution test in 100 ml of simulated gastric buffer (without pepsin), pH 2.0, at 37° C., according to USP 23 Apparatus 2 (paddle) with 50 rotations per minute. The amount of released SNAC in each sample was determined chromatographically, using an HPLC apparatus with Cosmosil™ 5 C18-MS-II (4.6 ID×250 mm) column. Mobile phase consisted of 50% acetonitrile and 50% phosphoric acid solution (0.1%). Flow rate was 1 ml/minute and injection volume was 25 μl. Amount of released SNAC was calculated as a percentage of the amount of SNAC in the formulation.

[6] = oral tablet 0.75 mg teriparatide with SNAC, SBTI, magnesium stearate, fasted healthy volunteers, plasma PTH(1-34), per subject (A, B, C)
[7] = oral tablet 0.75 mg teriparatide with SNAC, SBTI, magnesium stearate, second visit two weeks later, per subject (A, B, C)

## CC[C@H](C)[C@H](NC(=O)[C@H](CCC(=O)O)NC(=O)[C@H](CO)NC(=O)[C@@H](NC(=O)[C@@H](N)CO)C(C)C)C(=O)N[C@@H](CCC(N)=O)C(=O)N[C@@H](CC(C)C)C(=O)N[C@@H](CCSC)C(=O)N[C@@H](Cc1cnc[nH]1)C(=O)N[C@@H](CC(N)=O)C(=O)N[C@@H](CC(C)C)C(=O)NCC(=O)N[C@@H](CCCCN)C(=O)N[C@@H](Cc1cnc[nH]1)C(=O)N[C@@H](CC(C)C)C(=O)N[C@@H](CC(N)=O)C(=O)N[C@@H](CO)C(=O)N[C@@H](CCSC)C(=O)N[C@@H](CCC(=O)O)C(=O)N[C@@H](CCCN=C(N)N)C(=O)N[C@H](C(=O)N[C@@H](CCC(=O)O)C(=O)N[C@@H](Cc1c[nH]c2ccccc12)C(=O)N[C@@H](CC(C)C)C(=O)N[C@@H](CCCN=C(N)N)C(=O)N[C@@H](CCCCN)C(=O)N[C@@H](CCCCN)C(=O)N[C@@H](CC(C)C)C(=O)N[C@@H](CCC(N)=O)C(=O)N[C@@H](CC(=O)O)C(=O)N[C@H](C(=O)N[C@@H](Cc1cnc[nH]1)C(=O)N[C@@H](CC(N)=O)C(=O)N[C@@H](Cc1ccccc1)C(=O)O)C(C)C)C(C)C [teriparatide]
[1]; oral tablet 0.75 mg teriparatide with SNAC and SBTI, plasma
  time for plasma levels to return to baseline levels after tablet administration: ≤ 60 min
[1]; [6]
  Cmax after 1st administration: 35 picogram/ml
  Tmax after 1st administration: 10 min and 15 min
[1]; [7]
  Cmax after 2nd administration: 36 picogram/ml
  Tmax after 2nd administration: 20 min
[2]
  increase in absorption of PTH(1-34) (based on AUC): about 35%
[3]; oral 1800 μg vs subcutaneous 20 μg teriparatide, FIG. 3
  decline of PTH levels following oral administration compared with subcutaneous administration: declined considerably more rapidly
[3]; oral tablets 200, 400, 680, 1400 or 1800 μg teriparatide with SNAC and SBTI, FIG. 2
  Cmax of PTH(1-34) following oral administration, relation to dose: proportional to the dose
[3]; oral tablets with SNAC and SBTI, FIG. 2
  oral dose providing a Cmax equivalent to that of subcutaneous administration of 20 μg teriparatide: roughly 750 μg
[4]; oral administration of 680 μg teriparatide (compared with subcutaneous 20 μg)
  plasma cAMP levels: increased plasma cAMP levels to a similar degree
[4]; subcutaneous administration of 20 μg teriparatide (compared with oral 680 μg)
  plasma cAMP levels: increased plasma cAMP levels to a similar degree

## O=C(O)CCCCCCCNC(=O)c1ccccc1O [SNAC, sodium 8-N-(2-hydroxybenzoyl)aminocaprylate]
[5]
  dissolution of SNAC in tablets: considerably enhanced
  soluble fraction of SNAC: preserved
